Data taken from PMC3985299, “Single Ascending Dose Safety and Pharmacokinetics of CDRI-97/78: First-in-Human Study of a Novel Antimalarial Drug” (Malaria Research and Treatment, 2014).
Entries after “also recorded” stand apart in the source; their conditions may differ.

Assays:
healthy human volunteers [1] = experiment: Single ascending dose, placebo-controlled phase I study: adverse events, tolerability, MTD; assay type: in vivo; details: for Severity grade: CTCAE v4.0
Method: This was a single ascending dose, placebo-controlled, randomized, double blind trial. Randomization was carried out by computer generated random number sequence. Randomization was carried out for the drug and the placebo in a 3 : 1 ratio for each dose level. The drugs were dispensed in sealed bottles with the randomization code written on them. Randomization codes were provided in sealed opaque envelopes with the protocol specification that the codes may be opened by the investigator only in case of a serious or severe adverse event.
This was used to obtain a dose of 96 mg for a 60 kg person. […] The following dose levels were evaluated: 80, 160, 320, 400, 500, 600, and 700 mg. The starting dose was calculated by allometric scaling from animals. At each dose level, six volunteers received CDRI 97/78 and two received placebo except at 700 mg where only two volunteers were given this dose. At each dose level, volunteers were assessed before proceeding to the next dose.
The decision to stop the dose escalation was based on the appearance of the dose limiting toxicity (DLT) which was defined as the dose at which any of the following appeared: severe nausea, vomiting, heartburn, headache, remarkable change in vital parameters such as blood pressure, heart rate, respiratory rate or oxygen saturation of blood, changes in QT interval, or any event that in the opinion of the investigators required stopping of the trial.
In case this was not achieved, it was planned not to dose volunteers beyond 700 mg.
(§1) The volunteers after giving informed consent were screened. The screening process was done latest within 1 month of admission for dosing. The volunteers who fulfilled the inclusion/exclusion criteria were admitted in the CPU the night before drug administration. Standardized dinner was served at 9 pm the night prior to dosing. On day 0, baseline blood sample for biochemical and haematological examination and stool and urine samples for routine and microscopy were taken. They received the study drug, according to the randomization sequence, under supervision. The empty packaging was returned to the container. The volunteers received drug as per randomization. Breakfast was given half an hour after drug administration. Subsequently, standardized lunch and dinner were served to the volunteers.
The subjects were attached to a cardiac monitor and vital HR, BP, ECG, oxygen saturation, and RR were recorded. Corrected QT interval using Fridericia's formula was calculated. […] Unscheduled monitoring was undertaken whenever it felt necessary. […] At the end of the 7th day, they were said to have completed the study. […] The study was monitored by a Data Safety Monitoring Board.

healthy human volunteers [2] = experiment: Single ascending dose study: clinical parameters (blood pressure, pulse rate, respiratory rate, corrected QT); assay type: in vivo; design: SBP / DBP: unit not given here; details: for DBP / SBP: 2 hours after drug administration; for Diastolic blood pressure: 600 and 700 mg group
Description: as §1
The subjects were attached to a cardiac monitor and vital HR, BP, ECG, oxygen saturation, and RR were recorded. Corrected QT interval using Fridericia's formula was calculated. Adverse events were assessed at specific time points (0.5, 1, 2, 4, 6, 8, 12, and 24 hrs after medication). Unscheduled monitoring was undertaken whenever it felt necessary. The volunteers were discharged after 24 hrs and they had to return at 48 hrs and on the 7th day for follow-up. At the end of the 7th day, they were said to have completed the study. Routine haematological and biochemical investigations were performed at 0 hr, 24 hrs after drug administration, and on day 7. The study was monitored by a Data Safety Monitoring Board.

[3] = AE Heaviness of head, 80 mg group
[4] = AE Visual disturbances, 320 mg group
[5] = single oral dose 80-700 mg, healthy male volunteers
[6] = volunteers given 500 mg, 600 mg (and placebo)

For `C=C(c1ccc(OC(C)(C)COC(=O)CCC(=O)O)cc1)C1COC2(OO1)C1CC3CC(C1)CC2C3` (stereo not drawn) [CDRI 97/78, Mono[2methyl2[3(1spiro[tricycle[3.3.1.13,7]decane2,3′-[1,2,4]trioxan] 6′-ylethenyl)phenoxy]propyl] ester], the No. of events (healthy human volunteers [1]; 80 mg, Heaviness of head) was 1, the “Type of adverse events” value (healthy human volunteers [1]; 160 mg) was “None” and the No. of events (healthy human volunteers [1]; 320 mg, Visual disturbance) was 1. It also gave a No. of events (healthy human volunteers [1]; 400 mg, Bradycardia) of 1, a No. of events (healthy human volunteers [1]; 400 mg, Drowsiness) of 1 and a No. of events (healthy human volunteers [1]; 400 mg, Itching) of 1. The No. of events (healthy human volunteers [1]; 500 mg, Nausea) was 1, the No. of events (healthy human volunteers [1]; 500 mg, Sedation) was 1 and the No. of events (healthy human volunteers [1]; 600 and 700 mg, Sedation) was 1. For the same compound, the Causality assessment (healthy human volunteers [1]; AE Bradycardia, 400 mg group) was “Possible (possible (>5% but ≤50% chance of being drug related)”, the “Duration of AE” value (healthy human volunteers [1]; AE Bradycardia, 400 mg group) was 60 min and the “Reversal complete (yes or no)” value (healthy human volunteers [1]; AE Bradycardia, 400 mg group) was “Yes”. For the same compound, the “Spontaneous reversal (yes or no)” value (healthy human volunteers [1]; AE Bradycardia, 400 mg group) was “Yes”, the “Time (hrs) of onset after drug administration” value (“Time (hrs) of onset” below) (healthy human volunteers [1]; AE Bradycardia, 400 mg group) was 1 h and the Treatment given (healthy human volunteers [1]; AE Bradycardia, 400 mg group) was “None”. The Severity grade (healthy human volunteers [1]; AE Bradycardia, 400 mg group) was 1, the Causality assessment (healthy human volunteers [1]; AE Drowsiness, 400 mg group) was “Possible (possible (>5% but ≤50% chance of being drug related)” and the “Duration of AE” value (healthy human volunteers [1]; AE Drowsiness, 400 mg group) was 60 min. The “Reversal complete (yes or no)” value (healthy human volunteers [1]; AE Drowsiness, 400 mg group) was “Yes”, the “Spontaneous reversal (yes or no)” value (healthy human volunteers [1]; AE Drowsiness, 400 mg group) was “Yes” and the “Time (hrs) of onset” value (healthy human volunteers [1]; AE Drowsiness, 400 mg group) was 2 h. For the same compound, the Treatment given (healthy human volunteers [1]; AE Drowsiness, 400 mg group) was “None”, the Severity grade (healthy human volunteers [1]; AE Drowsiness, 400 mg group) was 1 and the Causality assessment (healthy human volunteers [1]; [3]) was “Possible (possible (>5% but ≤50% chance of being drug related)”. For the same compound, the “Duration of AE” value (healthy human volunteers [1]; [3]) was 15 min, the “Reversal complete (yes or no)” value (healthy human volunteers [1]; [3]) was “Yes” and the “Spontaneous reversal (yes or no)” value (healthy human volunteers [1]; [3]) was “Yes”. The “Time (hrs) of onset” value (healthy human volunteers [1]; [3]) was 0.25 h, the Treatment given (healthy human volunteers [1]; [3]) was “None” and the Severity grade (healthy human volunteers [1]; [3]) was 1. The Causality assessment (healthy human volunteers [1]; AE Itching, 400 mg group) was “Possible (possible (>5% but ≤50% chance of being drug related)”, the “Duration of AE” value (healthy human volunteers [1]; AE Itching, 400 mg group) was 8 min and the “Reversal complete (yes or no)” value (healthy human volunteers [1]; AE Itching, 400 mg group) was “Yes”. The “Spontaneous reversal (yes or no)” value (healthy human volunteers [1]; AE Itching, 400 mg group) was “Yes”, the “Time (hrs) of onset” value (healthy human volunteers [1]; AE Itching, 400 mg group) was 24 h and the Treatment given (healthy human volunteers [1]; AE Itching, 400 mg group) was “None”. The Severity grade (healthy human volunteers [1]; AE Itching, 400 mg group) was 1, the Causality assessment (healthy human volunteers [1]; AE Nausea, 500 mg group) was “Possible (possible (>5% but ≤50% chance of being drug related)” and the “Duration of AE” value (healthy human volunteers [1]; AE Nausea, 500 mg group) was 20 min. The “Reversal complete (yes or no)” value (healthy human volunteers [1]; AE Nausea, 500 mg group) was “Yes”, the “Spontaneous reversal (yes or no)” value (healthy human volunteers [1]; AE Nausea, 500 mg group) was “Yes” and the “Time (hrs) of onset” value (healthy human volunteers [1]; AE Nausea, 500 mg group) was 0.25 h. The Treatment given (healthy human volunteers [1]; AE Nausea, 500 mg group) was “None”, the Severity grade (healthy human volunteers [1]; AE Nausea, 500 mg group) was 1 and the Causality assessment (healthy human volunteers [1]; AE Sedation, 500 mg group) was “Possible (possible (>5% but ≤50% chance of being drug related)”. The “Duration of AE” value (healthy human volunteers [1]; AE Sedation, 500 mg group) was 120 min, the “Reversal complete (yes or no)” value (healthy human volunteers [1]; AE Sedation, 500 mg group) was “Yes” and the “Spontaneous reversal (yes or no)” value (healthy human volunteers [1]; AE Sedation, 500 mg group) was “Yes”. The “Time (hrs) of onset” value (healthy human volunteers [1]; AE Sedation, 500 mg group) was 2 h, the Treatment given (healthy human volunteers [1]; AE Sedation, 500 mg group) was “None” and the Severity grade (healthy human volunteers [1]; AE Sedation, 500 mg group) was 1-2. The Causality assessment (healthy human volunteers [1]; AE Sedation, 600 mg group) was “Possible (possible (>5% but ≤50% chance of being drug related)”, the “Duration of AE” value (healthy human volunteers [1]; AE Sedation, 600 mg group) was 60 min and the “Reversal complete (yes or no)” value (healthy human volunteers [1]; AE Sedation, 600 mg group) was “Yes”. For the same compound, the “Spontaneous reversal (yes or no)” value (healthy human volunteers [1]; AE Sedation, 600 mg group) was “Yes”, the “Time (hrs) of onset” value (healthy human volunteers [1]; AE Sedation, 600 mg group) was 2 h and the Treatment given (healthy human volunteers [1]; AE Sedation, 600 mg group) was “None”. The Severity grade (healthy human volunteers [1]; AE Sedation, 600 mg group) was 1-2, the Causality assessment (healthy human volunteers [1]; [4]) was “Remote (remote (<5% chance of being drug related))” and the “Duration of AE” value (healthy human volunteers [1]; [4]) was 2 to 3 min. For the same compound, the “Reversal complete (yes or no)” value (healthy human volunteers [1]; [4]) was “Yes”, the “Spontaneous reversal (yes or no)” value (healthy human volunteers [1]; [4]) was “Yes” and the “Time (hrs) of onset” value (healthy human volunteers [1]; [4]) was 36 h. For the same compound, the Treatment given (healthy human volunteers [1]; [4]) was “None”, the Severity grade (healthy human volunteers [1]; [4]) was 1 and the “Heart rate during adverse event bradycardia” value (healthy human volunteers [1]; adverse event bradycardia) was 56-57 bpm. The “Incidence of adverse events, drug vs placebo groups” value (healthy human volunteers [1]; all dose levels, P = 0.43) was “no significant difference”, the Serious adverse events (healthy human volunteers [1]; single oral dose 80-700 mg) was “No serious adverse events were reported” and the “MTD (maximum tolerated dose)” value (healthy human volunteers [1]; [5]) was “not reached; also recorded: could not be determined”. For the same compound, the Tolerability / safety (healthy human volunteers [1]; [5]) was “well tolerated; also recorded: safe and tolerable”, the “Sedation: duration” value (healthy human volunteers [1]; [6]) was 1 to 2 h and the “Sedation: time of onset after drug administration” value (healthy human volunteers [1]; [6]) was “about 2 hours”. It also gave a DBP (healthy human volunteers [2]; 80 mg) of 73 ± 5.21, an SBP (healthy human volunteers [2]; 80 mg) of 112.17 ± 6.24 and a DBP (healthy human volunteers [2]; 160 mg) of 77.17 ± 8.06. For the same compound, the SBP (healthy human volunteers [2]; 160 mg) was 119.5 ± 5.17, the DBP (healthy human volunteers [2]; 320 mg) was 82.33 ± 4.68 and the SBP (healthy human volunteers [2]; 320 mg) was 127.5 ± 6.38. For the same compound, the DBP (healthy human volunteers [2]; 400 mg) was 71.33 ± 8.19, the SBP (healthy human volunteers [2]; 400 mg) was 111.83 ± 7.91 and the DBP (healthy human volunteers [2]; 500 mg) was 71.83 ± 7.81. For the same compound, the SBP (healthy human volunteers [2]; 500 mg) was 114.5 ± 8.34, the DBP (healthy human volunteers [2]; 600 mg) was 66.5 ± 6.53 and the SBP (healthy human volunteers [2]; 600 mg) was 112.83 ± 6.18. For the same compound, the DBP (healthy human volunteers [2]; 700 mg) was 69 ± 8.48, the SBP (healthy human volunteers [2]; 700 mg) was 115.5 ± 2.12 and the “Corrected QT interval (Fridericia), change within treatment groups” value (healthy human volunteers [2]; 80-700 mg groups) was “no statistically or clinically significant difference; also recorded: No clinically meaningful alteration”. It also gave a Diastolic blood pressure (healthy human volunteers [2]; 0 hours) of 76.87 ± 8.74 mmHg, a Diastolic blood pressure (healthy human volunteers [2]; 0.5 hours) of 78.37 ± 8.86 mmHg and a Diastolic blood pressure (healthy human volunteers [2]; 1 hours) of 79.25 ± 13.46 mmHg. For the same compound, the Diastolic blood pressure (healthy human volunteers [2]; 2 hours) was 67.12 ± 6.49 mmHg, the Diastolic blood pressure (healthy human volunteers [2]; 4 hours) was 73.12 ± 12.32 mmHg and the Diastolic blood pressure (healthy human volunteers [2]; 6 hours) was 75.87 ± 8.11 mmHg. The Diastolic blood pressure (healthy human volunteers [2]; 8 hours) was 74 ± 11 mmHg, the Diastolic blood pressure (healthy human volunteers [2]; 12 hours) was 75 ± 10.03 mmHg and the “Pulse rate, respiratory rate and systolic blood pressure, change compared to baseline” value (healthy human volunteers [2]; any time point, all treatment groups) was “None of the treatment groups demonstrated a significant alteration”.
